Earlier results, collected in publication PMC10261210 (Cancer Chemotherapy and Pharmacology, 2023).

Tested on: relapsed or progressive LGGs harboring BRAF alterations
Parameters: method as in ref 33 = [33]; 33. Kilburn L, Landi D, Leary S, Ziegler DS, Baxter P, Franson A, McCowage G, Waanders AJ, Van der Lugt J, Yalon Oren M, Gerber NU, Gottardo NG, Khuong-Quang D-A, Nysom K, Bailey S, Hernáiz Driever P
Details: interim analysis, first 25 enrolled patients with ≥ 6 months of follow-up, QW monotherapy; cited from earlier work

C[C@@H](NC(=O)c1ncnc(N)c1Cl)c1ncc(C(=O)Nc2cc(C(F)(F)F)c(Cl)cn2)s1 [tovorafenib]
clinical benefit rate: 91%
overall response rate: 64%
